The values that follow are results of earlier work, collected in paper PMC3954986 (Chemmedchem, 2013).

The data set deals with PLpro. As to conditions: cited from earlier work.

Broadly, the IC50 is the point on the concentration scale where inhibition reaches its midpoint. Consider `Nc1nc2nc[nH]c2c(=S)[nH]1` [Inhibitor 6TG, 6‐thioguanine], for which the IC50 was 5 to 20 µM.

For `Sc1ncnc2nc[nH]c12` [Inhibitor 6MP, 6‐mercaptopurine], the half-maximal inhibitory concentration (IC50) is 5 to 20 µM.
